# Data from PubChem BioAssay (NCI).
#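 48-hour exposure; five concentrations; linearly interpolated endpoints. The concentration for 50% growth inhibition is given as GI50. TGI: total growth inhibition.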
# How the values were obtained:
# Assay in all cases: NCI-60 cell line screen, 48 h
# [1] = tested on: SF-295 CNS
# [2] = tested on: OVCAR-4 ovarian
# [3] = tested on: HL-60(TB) leukemia
# [4] = tested on: RXF 393 renal
# [5] = tested on: CCRF-CEM leukemia
# [6] = tested on: UO-31 renal
# [7] = tested on: SNB-75 CNS
# [8] = tested on: MDA-MB-231 breast
# [9] = tested on: K-562 leukemia
# [10] = tested on: EKVX NSCLC
# [11] = tested on: SF-268 CNS
# [12] = tested on: OVCAR-3 ovarian
# [13] = tested on: CAKI-1 renal
# [14] = tested on: OVCAR-8 ovarian
# [15] = tested on: MCF7 breast
# [16] = tested on: TK-10 renal
# [17] = tested on: NCI-H23 lung
# [18] = tested on: SK-MEL-2 melanoma
# [19] = tested on: NCI-H460 lung
# [20] = tested on: HCT-15 colon
# [21] = tested on: T-47D breast
# [22] = tested on: LOX IMVI melanoma
# [23] = tested on: NCI/ADR-RES ovarian
# [24] = tested on: BT-549 breast
# [25] = tested on: ACHN renal
# [26] = tested on: UACC-62 melanoma
# [27] = tested on: SN12C renal
# [28] = tested on: 786-0 renal
# [29] = tested on: HOP-92 NSCLC
# [30] = tested on: HCT-116 colon
# [31] = tested on: IGROV1 ovarian
# [32] = tested on: SW-620 colon
# [33] = tested on: M14 melanoma
# [34] = tested on: SF-539 CNS
# [35] = tested on: NCI-H226 lung
# [36] = tested on: U251 CNS
# [37] = tested on: KM12 colon
# [38] = tested on: COLO 205 colon
# [39] = tested on: HT29 colon
# [40] = tested on: HS 578T breast
# [41] = tested on: SK-OV-3 ovarian
# [42] = tested on: SNB-19 CNS
# [43] = tested on: MALME-3M melanoma
# [44] = tested on: A549 NSCLC
# [45] = tested on: HCC-2998 colon
# [46] = tested on: RPMI-8226 leukemia
# [47] = tested on: PC-3 prostate
# [48] = tested on: SK-MEL-5 melanoma
# [49] = tested on: OVCAR-5 ovarian
# [50] = tested on: MOLT-4 leukemia
# [51] = tested on: MDA-MB-435
# [52] = tested on: HOP-62 NSCLC
# [53] = tested on: SR leukemia
# [54] = tested on: DU-145 prostate
# [55] = tested on: A498 renal
# [56] = tested on: UACC-257 melanoma
# [57] = tested on: SK-MEL-28 melanoma
# [58] = tested on: NCI-H522 lung
structure (smiles),measurement,setting,value
Cc1ccc(-c2c(C#N)[n+](=O)c3cc(Cl)c(Cl)cc3n2[O-])cc1,GI50,[1],19.4 µM
same,TGI,[1],37.9 µM
same,GI50,[2],10.8 µM
same,TGI,[2],30.4 µM
same,GI50,[3],2.5 µM
same,TGI,[3],> 100 µM
same,GI50,[4],5.53 µM
same,TGI,[4],12.6 µM
same,GI50,[5],2.95 µM
same,TGI,[5],15.6 µM
same,GI50,[6],13.6 µM
same,TGI,[6],35.7 µM
same,GI50,[7],18.2 µM
same,TGI,[7],38.2 µM
same,GI50,[8],3.49 µM
same,GI50,[9],2.56 µM
same,GI50,[10],21.5 µM
same,TGI,[10],45.4 µM
same,GI50,[11],5.16 µM
same,TGI,[11],18 µM
same,GI50,[12],8.29 µM
same,TGI,[12],23.5 µM
same,GI50,[13],16.9 µM
same,TGI,[13],32.2 µM
same,GI50,[14],7.39 µM
same,TGI,[14],23.1 µM
same,GI50,[15],13.6 µM
same,TGI,[15],34.9 µM
same,GI50,[16],16.7 µM
same,TGI,[16],32.9 µM
same,GI50,[17],5.46 µM
same,TGI,[17],13.1 µM
same,GI50,[18],17.3 µM
same,TGI,[18],34.7 µM
same,GI50,[19],20 µM
same,TGI,[19],41.3 µM
same,GI50,[20],29.9 µM
same,TGI,[20],> 100 µM
same,GI50,[21],5.98 µM
same,TGI,[21],16.3 µM
same,GI50,[22],27.1 µM
same,TGI,[22],> 100 µM
same,GI50,[23],5.86 µM
same,TGI,[23],17.3 µM
same,GI50,[24],16.1 µM
same,TGI,[24],35.5 µM
same,GI50,[25],5.27 µM
same,GI50,[26],> 47 µM
same,TGI,[26],> 69.4 µM
same,GI50,[27],30.5 µM
same,TGI,[27],85.6 µM
same,GI50,[28],13.4 µM
same,TGI,[28],30.1 µM
same,GI50,[29],6 µM
same,TGI,[29],13.7 µM
same,GI50,[30],2.16 µM
same,GI50,[31],3.41 µM
same,TGI,[31],> 36.9 µM
same,GI50,[32],5.08 µM
same,TGI,[32],11.8 µM
same,GI50,[33],4.95 µM
same,TGI,[33],19.2 µM
same,GI50,[34],16.1 µM
same,TGI,[34],35 µM
same,GI50,[35],40.4 µM
same,TGI,[35],> 100 µM
same,GI50,[36],34.6 µM
same,TGI,[36],> 100 µM
same,GI50,[37],6.05 µM
same,TGI,[37],26.6 µM
same,GI50,[38],8.97 µM
same,TGI,[38],24.2 µM
same,GI50,[39],2.94 µM
same,TGI,[39],11 µM
same,GI50,[40],10.3 µM
same,TGI,[40],48.9 µM
same,GI50,[41],21.6 µM
same,TGI,[41],47.1 µM
same,GI50,[42],14.4 µM
same,TGI,[42],> 47.1 µM
same,GI50,[43],7 µM
same,TGI,[43],25.2 µM
same,GI50,[44],8.32 µM
same,TGI,[44],23.3 µM
same,GI50,[45],4.76 µM
same,TGI,[45],11.6 µM
same,GI50,[46],4.76 µM
same,TGI,[46],16.7 µM
same,GI50,[47],6.88 µM
same,TGI,[47],18.5 µM
same,GI50,[48],13.9 µM
same,TGI,[48],27.2 µM
same,GI50,[49],6.02 µM
same,TGI,[49],14.7 µM
same,GI50,[50],1.55 µM
same,TGI,[50],3.41 µM
same,GI50,[51],17.2 µM
same,TGI,[51],35.2 µM
same,GI50,[52],10.3 µM
same,TGI,[52],26.7 µM
same,GI50,[53],2.13 µM
same,TGI,[53],> 100 µM
same,GI50,[54],17 µM
same,TGI,[54],33.2 µM
same,GI50,[55],16.3 µM
same,TGI,[55],30.4 µM
same,GI50,[56],4.89 µM
same,TGI,[56],9.77 µM
same,GI50,[57],3.98 µM
same,TGI,[57],13.5 µM
same,GI50,[58],12.9 µM
same,TGI,[58],> 67.4 µM
O=S1CCN(Cc2ccc(-c3ccc4ncnc(Nc5ccc(OCc6cccc(F)c6)c(Cl)c5)c4c3)o2)CC1,GI50,[1],5.83 µM
same,TGI,[1],> 19 µM
same,GI50,[2],5.26 µM
same,TGI,[2],> 25 µM
same,GI50,[3],6.3 µM
same,TGI,[3],15.7 µM
same,GI50,[4],3.85 µM
same,TGI,[4],> 23.6 µM
same,GI50,[5],6.89 µM
same,TGI,[5],24.8 µM
same,GI50,[6],0.473 µM
same,TGI,[6],24.9 µM
same,GI50,[7],7.92 µM
same,TGI,[7],> 25 µM
same,GI50,[8],5.19 µM
same,TGI,[8],> 16.1 µM
same,GI50,[9],6.53 µM
same,TGI,[9],> 25 µM
same,GI50,[10],0.0304 µM
same,TGI,[10],> 25 µM
same,GI50,[11],8.56 µM
same,TGI,[11],> 25 µM
same,GI50,[12],4.86 µM
same,TGI,[12],> 25 µM
same,GI50,[13],0.041 µM
same,TGI,[13],> 25 µM
same,GI50,[14],7.68 µM
same,TGI,[14],> 25 µM
same,GI50,[15],6.1 µM
same,TGI,[15],> 25 µM
same,GI50,[16],0.00776 µM
same,TGI,[16],> 16.3 µM
same,GI50,[17],8.42 µM
same,TGI,[17],> 25 µM
same,GI50,[18],4.41 µM
same,TGI,[18],9.97 µM
same,GI50,[19],7.62 µM
same,TGI,[19],> 25 µM
same,GI50,[20],5.77 µM
same,TGI,[20],> 25 µM
same,GI50,[21],1.95 µM
same,TGI,[21],18.3 µM
same,GI50,[22],4.65 µM
same,TGI,[22],10.5 µM
same,GI50,[23],4.82 µM
same,TGI,[23],> 25 µM
same,GI50,[24],6.2 µM
same,TGI,[24],> 23.9 µM
same,GI50,[25],0.082 µM
same,TGI,[25],> 25 µM
same,GI50,[26],4.12 µM
same,TGI,[26],10.6 µM
same,GI50,[27],7.77 µM
same,TGI,[27],> 25 µM
same,GI50,[28],6.54 µM
same,TGI,[28],> 25 µM
same,GI50,[29],3.95 µM
same,TGI,[29],22.4 µM
same,GI50,[30],8.66 µM
same,TGI,[30],> 25 µM
same,GI50,[31],0.226 µM
same,TGI,[31],5.29 µM
same,GI50,[32],7.34 µM
same,TGI,[32],> 25 µM
same,GI50,[33],5.84 µM
same,TGI,[33],> 18.6 µM
same,GI50,[34],6.54 µM
same,TGI,[34],> 20.9 µM
same,GI50,[35],4.4 µM
same,TGI,[35],> 25 µM
same,GI50,[36],9.4 µM
same,TGI,[36],> 25 µM
same,GI50,[37],6.72 µM
same,TGI,[37],> 22.8 µM
same,GI50,[38],4.77 µM
same,TGI,[38],13.5 µM
same,GI50,[39],4.22 µM
same,TGI,[39],10.8 µM
same,GI50,[40],4.63 µM
same,TGI,[40],> 21.6 µM
same,GI50,[41],0.00587 µM
same,TGI,[41],> 25 µM
same,GI50,[42],> 7.82 µM
same,TGI,[42],> 25 µM
same,GI50,[43],6.01 µM
same,TGI,[43],23.2 µM
same,GI50,[44],5.92 µM
same,TGI,[44],> 25 µM
same,GI50,[45],5.34 µM
same,TGI,[45],14.7 µM
same,GI50,[46],6.65 µM
same,TGI,[46],> 22.8 µM
same,GI50,[47],8.91 µM
same,TGI,[47],> 25 µM
same,GI50,[48],3.09 µM
same,TGI,[48],6.42 µM
same,GI50,[49],5.8 µM
same,TGI,[49],> 25 µM
same,GI50,[50],4.94 µM
same,TGI,[50],> 20.1 µM
same,GI50,[51],7.1 µM
same,TGI,[51],> 25 µM
same,GI50,[52],14.8 µM
same,TGI,[52],> 25 µM
same,GI50,[53],5.38 µM
same,TGI,[53],17.5 µM
same,GI50,[54],4.26 µM
same,TGI,[54],> 25 µM
same,GI50,[55],0.862 µM
same,TGI,[55],> 16.7 µM
same,GI50,[56],5.43 µM
same,TGI,[56],> 20.5 µM
same,GI50,[57],5.75 µM
same,TGI,[57],> 25 µM
same,GI50,[58],0.647 µM
same,TGI,[58],15.8 µM
